This passage reports CT26 cell viability results from US12728137B2, “Methods of treating cancer with a combination of mithramycin and immunotherapy” (University of South Florida, priority 2019, dated 2026).

The test system of this experiment is CT26 cells. Nature of the experiment: CT26 cell viability with TGFβI and/or Mit-A (CellTiter-Glo). Format: cell-based, mouse. The conditions noted are these: LY2109761 (5 μM) and/or 150 nM Mit-A for 48 hrs; FIG. 9. How it is done: FIG. 9 depicts a bar graph of cell viability assayed by CellTiter-Glo of CT26 cells that were cultured in the presence of TGFβI, LY2109761 (5 μM) and/or 150 nM Mit-A for 48 hrs.
Mit-A potentiates the inhibitory effects of transforming growth factor β (TGFβ): TGFβ activated stroma is one of the defining features of MSS CRCs^33. […] However, inhibition of TGFβ in these tumors induced a potent anti-tumor response. Since Sp1 is implicated in TGFβ induced tumor invasion, whether inhibition of TGFβ signaling will promote sensitization of CT26 cells to Mit-A was examined.
On the technique in general: In ATP-based viability assays light output follows the ATP content of the culture.

Consider `c1ccc(-c2nn3c(c2-c2ccnc4cc(OCCN5CCOCC5)ccc24)CCC3)nc1` [LY2109761], for which the CT26 cell viability entry is “did not inhibit”.
